Measurements taken from patent publication US20100331577A1, “Method for radio-labeling serotonin transporter ligand, 123I-IADM” (ATOMIC ENERGY COUNCIL-INSTITUTE OF NUCLEAR ENERGY RESEARCH, priority 2008, published 2010).

How the values were obtained:
serotonin transporter [1] = target: T1, serotonin transporter (Homo sapiens, UniProt P31645); conditions: cited from earlier work; for clarity of the image obtained: compared with ^125I-IDAM; for specific binding affinity: imaging of the serotonin transporter
T1 sequence (P31645 whole entry): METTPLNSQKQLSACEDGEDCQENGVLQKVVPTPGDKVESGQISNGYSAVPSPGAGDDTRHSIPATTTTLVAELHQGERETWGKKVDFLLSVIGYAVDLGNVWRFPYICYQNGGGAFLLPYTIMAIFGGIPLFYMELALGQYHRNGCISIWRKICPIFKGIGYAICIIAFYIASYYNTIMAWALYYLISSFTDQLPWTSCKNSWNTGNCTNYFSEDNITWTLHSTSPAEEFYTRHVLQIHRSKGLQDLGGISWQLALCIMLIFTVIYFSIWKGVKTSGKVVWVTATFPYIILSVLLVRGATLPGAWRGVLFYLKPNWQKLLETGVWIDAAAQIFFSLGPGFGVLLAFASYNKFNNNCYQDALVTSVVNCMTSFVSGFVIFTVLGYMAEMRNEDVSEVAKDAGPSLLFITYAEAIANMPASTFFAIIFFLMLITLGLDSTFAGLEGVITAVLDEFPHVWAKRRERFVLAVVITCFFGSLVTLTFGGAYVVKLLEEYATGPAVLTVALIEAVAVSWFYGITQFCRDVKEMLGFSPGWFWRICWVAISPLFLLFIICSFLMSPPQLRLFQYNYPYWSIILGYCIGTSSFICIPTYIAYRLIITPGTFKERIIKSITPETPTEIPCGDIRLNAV

[2] = cited from earlier work
serotonin transporter [3] = target: T1, serotonin transporter; conditions: cited from earlier work
serotonin transporter [4] = target: T2, serotonin transporter (Rattus norvegicus, UniProt P31652); experiment: microSPECT and microCT imaging of the brain of a SD rat; format: in vivo
T2 construct: from tissue; host or cells: brain of a SD rat (in vivo imaging)
T2 sequence (P31652 whole entry): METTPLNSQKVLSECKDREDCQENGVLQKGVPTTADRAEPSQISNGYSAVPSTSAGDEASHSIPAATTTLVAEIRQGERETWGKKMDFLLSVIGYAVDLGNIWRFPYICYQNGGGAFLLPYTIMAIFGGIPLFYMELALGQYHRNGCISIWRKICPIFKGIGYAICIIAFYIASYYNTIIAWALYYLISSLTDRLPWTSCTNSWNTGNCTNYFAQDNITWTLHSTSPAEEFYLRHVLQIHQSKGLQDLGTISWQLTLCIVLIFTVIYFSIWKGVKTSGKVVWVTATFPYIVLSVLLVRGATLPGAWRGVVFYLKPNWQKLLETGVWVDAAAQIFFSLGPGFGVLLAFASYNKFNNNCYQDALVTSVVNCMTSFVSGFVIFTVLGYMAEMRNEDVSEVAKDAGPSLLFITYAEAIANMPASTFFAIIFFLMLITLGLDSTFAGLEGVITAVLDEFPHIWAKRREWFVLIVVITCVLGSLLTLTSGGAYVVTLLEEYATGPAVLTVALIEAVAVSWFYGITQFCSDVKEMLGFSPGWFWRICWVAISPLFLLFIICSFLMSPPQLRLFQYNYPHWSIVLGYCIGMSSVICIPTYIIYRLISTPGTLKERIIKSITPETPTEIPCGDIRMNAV
Source text: Referring to FIG. 8, a microCT image 71 and a microSPECT image 72 of the brain of a SD rat are shown. A fused image 73 of the microCT image and the microSPECT image 72 is also shown. […] The concentration of the serotonin transporter in the midbrain is higher than in the cerebellum 73. The ^123I-ADAM 13 can effectively be used to detect the serotonin transporter.

serotonin transporter [5] = experiment: SPECT and MRI imaging of the brain of an ape; format: in vivo
Source text: Referring to FIG. 9, the ^123I-ADAM is used to provide a SPECT image and a MRI image 82 of an ape. […] The concentration of the serotonin transporter in the hypothalamus is higher than in the cerebellum 83. The ^123I-ADAM 13 can effectively be used to detect the serotonin transporter.

[6] = radiochemistry purity over time measured by HPLC (stability); format: physicochemical; conditions: main peak 63
Method: Referring to FIG. 4, an HPLC is used to measure the radiochemistry purity of the ^123I-ADAM 13. Reverse-phase high-performance liquid chromatography equipped with a radiodetector is used for the qualitative and quantitative assessment of the ^123I-ADAM 13. The retention time of the ^123I-ADAM 13 is 18 minutes.
Referring to FIG. 6, the radiochemistry purity of the ^123I-ADAM after 0 hour is shown in a chart. At 61, the radiochemistry purity is 0.67%. At 62, the radiochemistry purity is 1.58%. At 63, the radiochemistry purity is 97.78%.
Referring to FIG. 7, the radiochemistry purity of the ^123I-ADAM after 48 hours is shown in a chart. At 64, the radiochemistry purity is 4.41%. At 65, the radiochemistry purity is 1.55%. At 66 the radiochemistry purity is 94.04%. After 48 hours, the radiochemistry purity is still higher than 90%.

SERT = SERT (Homo sapiens, UniProt P31645); conditions: in vitro specific binding assay; cited from earlier work
SERT, sequence (P31645 whole entry): as the sequence (P31645 whole entry) above

In the case of `CN(C)Cc1ccccc1Sc1ccc([125I])cc1N` [^125I-ADAM], the “clarity of the image obtained” value (serotonin transporter [1]) is given as “clearer”, the specific binding affinity (serotonin transporter [1]) is given as “much higher than ^125I-IDAM” and the “absorption by the brain” value ([2]; compared with ^125I-IDAM) is given as “less than ^125I-IDAM”. For the same compound, the “affinity with the serotonin transporter” value (serotonin transporter [3]) was “much better than that of ^125I-IDAM”.

For `CN(C)Cc1ccccc1Sc1ccc([123I])cc1N` [^123I-ADAM], the “affinity with the midbrain versus cerebellum” value (serotonin transporter [4]) was “better than with the cerebellum”, the “affinity with the hypothalamus of the midbrain versus cerebellum” value (serotonin transporter [5]) was “more affinitive than with the cerebellum” and the “radiochemistry purity after 0 hour” value [6] was 97.78%.

For `CN(C)Cc1ccccc1Oc1ccc([125I])cc1CO` [^125I-ODAM], the “clarity of the image obtained” value (serotonin transporter [1]) is given as “less clear than with the use of ^125I-IDAM” and the “specific binding affinity with SERT” value (SERT) is given as “good”.

In the case of `CN(C)Cc1ccccc1Sc1ccc([125I])cc1CO` [^125I-IDAM], the specific binding affinity (serotonin transporter [1]) is given as 1.75 and the “absorption by a brain” value ([2]; two minutes after injection) is given as 2.44%.
